Measured values: article PMC8621101, “Inhibition of XPO-1 Mediated Nuclear Export through the Michael-Acceptor Character of Chalcones” (Pharmaceuticals, 2021)

Experiments:
[1] = Stability in phosphate-buffered solution (PBS); assay type: physicochemical
Source text: It has been described by performing kinetic measurements in α-X-2′3,4,4’-tetramethylchalcones that the nature of the substituent at position α of the chalcone affects their reactivity as electrophiles versus thiol groups. In such series, the α-COOEt substituent led to a similar reactivity as that of the α-H chalcone; the α-CH3 chalcone was poorly electrophilic, while the α-CN chalcone was the most electrophilic. Thus, in the naphthyl series (Figure 3), the synthesis of the chalcones where R1 = H, COOCH3, CH3 or CN was accomplished. The reaction of 1-(naphthalen-2-yl)ethan-1-one (11) with pyrimidine-5-carbaldehyde in the presence of Ba(OH)2 afforded α-H chalcone 9 in a 55% yield (Scheme 1). […] Reaction of the ester 12 with NH3/dioxane at 110 °C [29] led to the amide 14 that was further transformed into the chalcone 15. On the other hand, reaction of naphthalene 16 with propionyl chloride under Friedel–Crafts acylation conditions, as described, provided the 2-acyl derivative 17, together with a small proportion of its 1-isomer. This mixture of isomers reacted with pyrimidine-5-carbaldehyde to yield the α-CH3 chalcone 18 (30%). Finally, the synthesis of the α-CN derivative was addressed by the reaction of 2-methylnaphthoate (19) with acetonitrile to provide 3-oxopropanenitrile 20 [32], which was further transformed into the α-CN chalcone 21.

HL-60 cells = test: Cell proliferation assay (IncuCyte confluence), HL-60; assay type: cell-based; conditions: Homo sapiens; HL-60 acute myeloid leukemia; 72 h; mean of two independent experiments ± SEM; read-out: IC50 antiproliferative activity HL-60
Description: (§1) Cancer cell lines HCT-116, NCI-H460, HL-60, K-562 and Z-138 were acquired from the American Type Culture Collection (ATCC, Manassas, VA, USA). The DND-41 cell line was purchased from the Deutsche Sammlung von Mikroorganismen und Zellkulturen (DSMZ Leibniz-Institut, Brunswick, Germany), and the HAP-1 cell line was ordered from Horizon Discovery (Horizon Discovery Group, Water Beach, UK). All cell lines were cultured as recommended by the suppliers. Culture media were purchased from Gibco Life Technologies and supplemented with 10% fetal bovine serum (HyClone, GE Healthcare Life Sciences, Chicago, Illinois, USA).
(§2) Adherent cell lines HCT-116, NCI-H460 and Hap-1 cells were seeded at a density between 500 and 1500 cells per well in 384-well tissue culture plates (Greiner). After overnight incubation, cells were treated with different concentrations of the test compounds. Suspension cell lines HL-60, K-562, Z-138 and DND-41 were seeded at densities ranging from 2500 to 5500 cells per well in 384-well culture plates containing the test compounds at the same concentration points.

XPO1 (Jurkat XPO1^WT) = target: T1, XPO1 (Jurkat XPO1^WT) (Homo sapiens, UniProt O14980); test: RanBP1 immunofluorescence (XPO1-mediated nuclear export) in wild-type Jurkat cells; assay type: cell-based; conditions: positive control at 1 μM, 3 h
T1 construct: RanBP1 immunofluorescence staining was performed on both wild type and mutant XPO1^C528S Jurkat cells; endogenous in cells; host or cells: wild-type Jurkat leukemia cells
Description: (§3) The effect of the mutation on the activity of the inhibitors was assessed by the visualization of the subcellular localization of the XPO1 cargo RanBP1.
(§4) Stably transfected HeLa NLSSV40-AcGFP-NESPKI were cultured as described in Vercruysse et al.
(§5) Cells were harvested at 400× g, washed in PBS and then transferred into an 8-well µ-Slide (Ibidi) pretreated with 0.1% (w/v) poly-L-lysine (Sigma). Cells were allowed to adhere to the slides and then subsequently fixed (4% PFA in PBS), washed and permeabilized (0.2% Triton X-100 in PBS). Further immunofluorescence staining was then performed according to standard procedures. Employed antibodies were rabbit anti-RanBP1 (ab97659, Abcam, Cambridge, UK) at a 1:500 dilution and secondary Alexa Fluor 488 goat anti-rabbit antibody (A11008, Invitrogen, ThermoFisher Scientific). Cell nuclei were counterstained with DAPI, and the samples were imaged by confocal microscopy on a Leica TCS SP5 confocal microscope (Leica Microsystems, Weitzlar, Germany), employing a HCX PL APO 63× (NA 1.2) water immersion objective. Subsequently, fluorescence was read on an ArrayScan XTI High Content Reader (Thermo Fisher Scientific, Waltham, MA, USA). Nuclear and cytoplasmic compartments were segmented, and their average pixel intensities in the green channel were quantitated similarly as for the XPO1 phenotypic reporter assay.

Z-138 cells = test: Cell proliferation assay (IncuCyte confluence), Z-138; assay type: cell-based; conditions: Homo sapiens; Z-138 non-Hodgkin lymphoma; 72 h; mean of two independent experiments ± SEM; read-out: IC50 antiproliferative activity Z-138
Description: as §1, §2

DND-41 cells = test: Cell proliferation assay (IncuCyte confluence), DND-41; assay type: cell-based; conditions: DND41; DND-41 acute lymphoblastic leukemia; 72 h; mean of two independent experiments ± SEM; read-out: IC50 antiproliferative activity DND-41
Description: as §1, §2

K-562 cells = test: Cell proliferation assay (IncuCyte confluence), K-562; assay type: cell-based; conditions: Homo sapiens, K562; K-562 chronic myeloid leukemia; 72 h; mean of two independent experiments ± SEM; read-out: IC50 antiproliferative activity K-562
Description: as §1, §2

NCI-H460 cells = test: Cell proliferation assay (IncuCyte confluence), NCI-H460; assay type: cell-based; conditions: Homo sapiens; NCI-H460 lung carcinoma; 72 h; mean of two independent experiments ± SEM; read-out: IC50 antiproliferative activity NCI-H460
Description: as §1, §2

[2] = target: T2, XPO1^C528S (Jurkat XPO1^C528S) (Homo sapiens, UniProt O14980, C528S); test: RanBP1 immunofluorescence (XPO1-mediated nuclear export) in mutant XPO1^C528S Jurkat cells; assay type: cell-based; conditions: positive control at 1 μM, 3 h
T2 construct: CRISPR/Cas9 genome editing of the Jurkat cell line was performed as in Neggers et al. [43] to generate a XPO1^C528S mutant cell line; endogenous in cells; host or cells: Jurkat cells genome-edited by CRISPR/Cas9 at the XPO1 locus (XPO1^C528S)
T2 sequence (O14980 whole entry C528S): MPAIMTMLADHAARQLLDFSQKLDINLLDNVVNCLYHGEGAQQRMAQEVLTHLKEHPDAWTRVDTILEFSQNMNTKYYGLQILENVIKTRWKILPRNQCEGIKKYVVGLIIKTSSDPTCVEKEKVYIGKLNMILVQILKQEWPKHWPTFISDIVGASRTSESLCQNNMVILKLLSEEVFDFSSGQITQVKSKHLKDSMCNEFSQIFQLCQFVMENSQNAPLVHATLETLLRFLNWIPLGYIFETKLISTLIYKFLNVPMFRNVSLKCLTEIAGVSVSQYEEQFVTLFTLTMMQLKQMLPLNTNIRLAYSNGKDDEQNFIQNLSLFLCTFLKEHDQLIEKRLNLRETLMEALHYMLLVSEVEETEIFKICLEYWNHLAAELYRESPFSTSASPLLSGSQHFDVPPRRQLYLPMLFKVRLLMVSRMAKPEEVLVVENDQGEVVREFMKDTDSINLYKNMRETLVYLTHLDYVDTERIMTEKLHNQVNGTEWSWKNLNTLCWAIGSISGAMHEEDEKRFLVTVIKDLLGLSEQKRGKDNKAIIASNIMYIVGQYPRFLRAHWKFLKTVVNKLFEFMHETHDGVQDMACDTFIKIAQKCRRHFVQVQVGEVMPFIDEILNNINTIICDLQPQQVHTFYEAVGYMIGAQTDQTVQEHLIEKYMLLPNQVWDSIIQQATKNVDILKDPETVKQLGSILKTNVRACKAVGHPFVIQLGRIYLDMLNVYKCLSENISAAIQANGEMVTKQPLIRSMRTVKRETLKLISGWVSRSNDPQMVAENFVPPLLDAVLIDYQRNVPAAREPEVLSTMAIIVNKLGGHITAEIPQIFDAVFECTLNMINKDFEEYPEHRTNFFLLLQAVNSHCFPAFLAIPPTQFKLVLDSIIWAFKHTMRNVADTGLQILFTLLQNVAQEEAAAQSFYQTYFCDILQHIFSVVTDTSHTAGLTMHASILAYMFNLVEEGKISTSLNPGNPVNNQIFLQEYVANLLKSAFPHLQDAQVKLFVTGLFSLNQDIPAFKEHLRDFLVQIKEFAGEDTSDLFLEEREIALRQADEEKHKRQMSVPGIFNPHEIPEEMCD
Description: as §3, §4, §5

Hap-1 cells = test: Cell proliferation assay (IncuCyte confluence), Hap-1; assay type: cell-based; conditions: Homo sapiens, HAP1; Hap-1 chronic myeloid leukemia; 72 h; mean of two independent experiments ± SEM; read-out: IC50 antiproliferative activity Hap-1
Description: as §1, §2

HCT-116 cells = test: Cell proliferation assay (IncuCyte confluence), HCT-116; assay type: cell-based; conditions: Homo sapiens; HCT-116 colorectal carcinoma; 72 h; mean of two independent experiments ± SEM; read-out: IC50 antiproliferative activity HCT-116
Description: as §1, §2

Row | Stability in PBS [1] | IC50 (HL-60 cells) | Subcellular localization of RanBP1, wild-type Jurkat (XPO1 (Jurkat XPO1^WT)) | IC50 (K-562 cells) | IC50 (NCI-H460 cells) | Subcellular localization of RanBP1, mutant XPO1^C528S Jurkat [2] | IC50 (HCT-116 cells) | Structure (SMILES) | IC50 (Z-138 cells) | IC50 (DND-41 cells) | IC50 (Hap-1 cells)
1 | very unstable and readily decomposed |  |  |  |  |  |  | N#C/C(=C\c1cncnc1)C(=O)c1ccc2ccccc2c1 [Compound 21, (E)-2-Cyano-1-(naphthalene-2-yl)-3-(pyrimidin-5-yl)prop-2-en-1-one] |  |  | 
2 |  | 0.11 ± 0.1 µM | RanBP1 was accumulated in the nucleus | 0.09 µM | 0.12 ± 0.08 µM | RanBP1 remained in the cytoplasm | 0.1 ± 0.1 µM | O=C(/C=C\n1cnc(-c2cc(C(F)(F)F)cc(C(F)(F)F)c2)n1)NNc1cnccn1 [KPT-330, selinexor, reference compound] | 0.4 ± 0.4 µM | 0.05 µM | 0.07 ± 0.03 µM
